The record followed here is US20230212122A1, “MITOCHONDRIAL TARGETING COMPOUNDS FOR THE TREATMENT OF ASSOCIATED DISEASES” (The Regents of the University of Michigan, priority 2020, published 2023).

Molecules are shown by their SMILES.

One assay concerns MIA PaCa-2 cells. Description: MTT assay, cancer cell growth inhibition (MIA PaCa-2). Format: cell-based. As to conditions: Homo sapiens, MIA PaCa-2, 168 h, 7 days of treatment, read-out: MiaPaCa IC50. How it is done:
(§1) Measurement of cancer cell growth inhibition of the compounds of invention Cytotoxicity of the compounds was assessed by MTT assay. In brief, MIA PaCa-2 cells or BxPc3 cells were seeded in 96-well microtitre plates at density of 200 cells/well. After overnight attachment, cells were treated with compounds at indicated concentration. After 7 days of treatment, MTT solution (3 mg/ml, 20 μl) was added to each well and cells were incubated for 3 h at 37° C. After incubation, media from each well was removed and the dark blue formazan crystals formed by live cells were dissolved in DMSO ([…] per well). The absorbance intensity was measured at 570 nm on a microplate reader (Molecular Devices, Sunnyvale, Calif., USA). The half maximal inhibitory concentration (IC50) value were calculated using 4 or 6 dots curve plotted with Cumulative Gaussian equation or Log(inhibitor) vs. response equation in GraphPad Prism.
On the technique in general: Tetrazolium dyes change colour on reduction, which living cells bring about.

The subject of the next assay is BxPc3 cells. In words: MTT assay, cancer cell growth inhibition (BxPC-3). Format: cell-based. As to conditions: Homo sapiens, BXPC-3, 168 h, 7 days of treatment. How it is done:
as §1

A word on the IC50: it is the concentration that inhibits the measured activity by half. Turning to `CCOC(=O)[C@@H]1C[C@H](O)CN(S(=O)(=O)c2ccc(S(=O)(=O)N(CC)CC)cc2)C1` (relative stereo) [DX3-14B-P1, (cis)-ethyl 1-((4-(N,N-diethylsulfamoyl)phenyl)sulfonyl)-5-hydroxypiperidine-3-carboxylate], the half-maximal inhibitory concentration (IC50) in the assay with MIA PaCa-2 cells is 1.35 ± 0.59 µM; with BxPc3 cells it was 3.29 ± 0.06 µM.
As for `CCOC(=O)[C@H]1CCCN(S(=O)(=O)c2ccc(S(=O)(=O)N(CC)CC)cc2)C1` [DX2-202, ethyl (S)-1-((4-(N,N-diethylsulfamoyl)phenyl)sulfonyl)piperidine-3-carboxylate], the half-inhibitory concentration (IC50) in the assay on MIA PaCa-2 cells stood at 6.08 ± 0.76 µM; in the assay with BxPc3 cells, 6.8 ± 2.1 µM.
For `CCOC(=O)[C@@H]1CCCN(S(=N)(=O)c2ccc(S(=O)(=O)N(CC)CC)cc2)C1` (stereo partly drawn) [DX2-225, ethyl (3R)-1-(4-(N,N-diethylsulfamoyl)phenylsulfonimidoyl)piperidine-3-carboxylate], in that order: 12.1 ± 3.85 µM and 13.3 ± 4.58 µM.
Taken in the same sequence, the figures for `CCOC(=O)[C@@H]1CCCN(S(=O)(=O)c2ccc(Oc3ccc(S(=O)(=O)N(CC)CC)cc3)cc2)C1` [DX2-230, ethyl (R)-1-((4-(4-(N,N-diethylsulfamoyl)phenoxy)phenyl)sulfonyl)piperidine-3-carboxylate] were 3.92 ± 0.89 µM and 3.88 ± 0.57 µM.
As for `CCN(CC)S(=O)(=O)c1ccc(S(=O)(=O)N2CCC[C@@H](C(=O)NC3COC3)C2)cc1` [DX2-242, (R)-1-((4-(N,N-diethylsulfamoyl)phenyl)sulfonyl)-N-(oxetan-3-yl)piperidine-3-carboxamide], the half-maximal inhibitory concentration (IC50) in the assay with MIA PaCa-2 cells came out at 2.34 ± 1.01 µM; in the assay on BxPc3 cells, 13.8 ± 3.58 µM.
Taken in the same sequence, the figures for `CCN(CC)S(=O)(=O)c1ccc(S(=O)(=O)N2CCC[C@@H](C(=O)OC3CC3)C2)cc1` [DX2-263, cyclopropyl (R)-1-((4-(N,N-diethylsulfamoyl)phenyl)sulfonyl)piperidine-3-carboxylate] were 0.3 ± 0.13 µM and 0.35 ± 0.06 µM.
Take `CCOC(=O)[C@@H]1CCCN(S(=O)(=O)c2ccc(S(=O)(=O)N3CCCCC3)cc2)C1` [DX2-265, ethyl (R)-1-((4-(piperidin-1-ylsulfonyl)phenyl)sulfonyl)piperidine-3-carboxylate]: the IC50 in the assay on MIA PaCa-2 cells was determined as 2.87 ± 0.49 µM; in the assay on BxPc3 cells it was 3.29 ± 0.74 µM.
Taken in the same sequence, the figures for `CCOC(=O)[C@@H]1CCCN(S(=O)(=O)c2ccc(S(=O)(=O)N(CC)CC)c(F)c2)C1` [DX2-275, ethyl (R)-1-((4-(N,N-diethylsulfamoyl)-3-fluorophenyl)sulfonyl)piperidine-3-carboxylate] were 0.93 ± 0.36 µM and 1.61 ± 0.37 µM.
With `CCOC(=O)[C@@H]1CCCN(S(=O)(=O)c2ccc(S(=O)(=O)N(CC)CC)cn2)C1` [DX2-293, ethyl (R)-1-((5-(N,N-diethylsulfamoyl)pyridin-2-yl)sulfonyl)piperidine-3-carboxylate], the concentration for half-maximal inhibition (IC50) worked out at 1.3 ± 0.45 µM with MIA PaCa-2 cells and 1.37 ± 0.52 µM with BxPc3 cells.
As to `CCOC(=O)c1cccc(S(=O)(=O)c2ccc(S(=O)(=O)N(CC)CC)cc2)c1` [DX3-3, ethyl 3-((4-(N,N-diethylsulfamoyl)phenyl)sulfonyl)benzoate], the IC50 in the assay with MIA PaCa-2 cells is 4.12 ± 2.44 µM; in the assay with BxPc3 cells it was 2.29 ± 0.7 µM.
As to `CCN(CC)S(=O)(=O)c1ccc(S(=O)(=O)N2CCCC(S(=O)(=O)N(C)C)C2)cc1` (stereo not drawn) [DX3-39, 1-((4-(N,N-diethylsulfamoyl)phenyl)sulfonyl)-N,N-dimethylpiperidine-3-sulfonamide], the IC50 was found to be 5.1 ± 1.29 µM with MIA PaCa-2 cells and 6.3 ± 1.44 µM with BxPc3 cells.
For `CCOC(=O)C1CN(S(=O)(=O)c2ccc(S(=O)(=O)N(CC)CC)cc2)CCN1` (stereo not drawn) [DX3-44B, ethyl 4-((4-(N,N-diethylsulfamoyl)phenyl)sulfonyl)piperazine-2-carboxylate], in that order: 4.7 ± 1.92 µM and 6.77 ± 0.52 µM.
For `CCOC(=O)C1(F)CCCN(S(=O)(=O)c2ccc(S(=O)(=O)N(CC)CC)cc2)C1` (stereo not drawn) [DX3-47, ethyl 1-((4-(N,N-diethylsulfamoyl)phenyl)sulfonyl)-3-fluoropiperidine-3-carboxylate], in that order: 2.94 ± 0.32 µM and 4.92 ± 1.94 µM.
Taken in the same sequence, the figures for `CCN(CC)S(=O)(=O)c1ccc(S(=O)(=O)N2CCCC(F)C2)cc1` (stereo not drawn) [DX3-49B, N,N-diethyl-4-((3-fluoropiperidin-1-yl)sulfonyl)benzenesulfonamide] were 3.65 ± 1.68 µM and 8.27 ± 2.52 µM.
In the case of `CCOC(=O)[C@@H]1CCCN(S(=O)(=O)c2ccc(C(=O)N(CC)CC)cc2)C1` [DX3-78B, ethyl (R)-1-((4-(diethylcarbamoyl)phenyl)sulfonyl)piperidine-3-carboxylate], the results for the IC50 in the assay with MIA PaCa-2 cells and with BxPc3 cells were 0.28 µM and 0.62 µM, respectively.
Taken in the same sequence, the figures for `CCOC(=O)[C@@H]1CCCN(S(=O)(=O)c2ccc(S(=N)(=O)N(CC)CC)cc2)C1` (stereo partly drawn) [DX3-90, ethyl (3R)-1-((4-(N,N-diethylsulfamidimidoyl)phenyl)sulfonyl)piperidine-3-carboxylate] were 2.55 ± 0.15 µM and 3.59 ± 1.39 µM.
For the molecule `CCN(CC)S(=O)(=O)c1ccc(S(=O)(=O)N2CCC[C@@H](C(=O)N[C@@H]3CCOC3)C2)cc1` [DX3-107B, (R)-1-((4-(N,N-diethylsulfamoyl)phenyl)sulfonyl)-N-((R)-tetrahydrofuran-3-yl)piperidine-3-carboxamide], the IC50 in the assay on MIA PaCa-2 cells stood at 0.75 ± 0.08 µM; in the assay on BxPc3 cells, 2.27 ± 0.61 µM.
As to `CCOC(=O)C12CC(CN(S(=O)(=O)c3ccc(S(=O)(=O)N(CC)CC)cc3)C1)C2` [DX3-115, ethyl 3-((4-(N,N-diethylsulfamoyl)phenyl)sulfonyl)-3-azabicyclo[3.1.1]heptane-1-carboxylate], the IC50 was found to be 1.04 ± 0.45 µM in the assay on MIA PaCa-2 cells and 1.23 ± 0.79 µM in the assay with BxPc3 cells.
For `CCN(CC)S(=O)(=O)c1ccc(S(=O)(=O)N2CCC[C@@H](C(=O)N[C@H]3CCN(C(=O)OC(C)(C)C)C3)C2)cc1` [DX3-119, tert-butyl (S)-3-((R)-1-((4-(N,N-diethylsulfamoyl)phenyl)sulfonyl)piperidine-3-carboxamido)pyrrolidine-1-carboxylate], in that order: 0.13 ± 0.04 µM and 0.33 ± 0.12 µM.
Consider `CCN(CC)S(=O)(=O)c1ccc(S(=O)(=O)N2CCC[C@@H](C(=O)N3CC4(CN(C(=O)OC(C)(C)C)C4)C3)C2)cc1` [DX3-120, tert-butyl (R)-6-(1-((4-(N,N-diethylsulfamoyl)phenyl)sulfonyl)piperidine-3-carbonyl)-2,6-diazaspiro[3.3]heptane-2-carboxylate], for which the values for the IC50 with MIA PaCa-2 cells and in the assay with BxPc3 cells were 0.43 ± 0.18 µM and 1.1 ± 0.16 µM, respectively.
In the case of `CCN(CC)S(=O)(=O)c1ccc(S(=O)(=O)N2CCC[C@@H](C(=O)N3CCOCC3)C2)cc1` [DX3-121B, (R)-N,N-diethyl-4-((3-(morpholine-4-carbonyl)piperidin-1-yl)sulfonyl)benzenesulfonamide], the half-inhibitory concentration (IC50) in the assay with MIA PaCa-2 cells was found to be 0.35 ± 0.02 µM.
Consider `CCN(CC)S(=O)(=O)c1ccc(S(=O)(=O)N2CCC[C@@H](c3nc(C)no3)C2)cc1` [DX3-122B, (R)-N,N-diethyl-4-((3-(3-methyl-1,2,4-oxadiazol-5-yl)piperidin-1-yl)sulfonyl)benzenesulfonamide], for which the half-inhibitory concentration (IC50) was found to be 4.12 ± 1.16 µM with MIA PaCa-2 cells and 2.86 ± 3.14 µM in the assay with BxPc3 cells.
As to `CCN(CC)S(=O)(=O)c1ccc(S(=O)(=O)N2CCC[C@@H](C(=O)N[C@@H]3CCN(C(=O)c4ccccc4)C3)C2)cc1` [DX3-125, (R)-N-((R)-1-benzoylpyrrolidin-3-yl)-1-((4-(N,N-diethylsulfamoyl)phenyl)sulfonyl)piperidine-3-carboxamide], the IC50 with MIA PaCa-2 cells came to 0.94 µM; in the assay with BxPc3 cells, 3.72 µM.
